Each block holds one compound with its values, some of them ahead of it.
Tests used:
Human CCR5 [1] = target: T1, Human CCR5 (Homo sapiens, UniProt P51681); test: CCR5 functional assay - Ca2+ mobilization in CHO K1 CCR5 transfectants; format: cell-based
T1 construct: expressed in transfected cells
Procedure: b) CCR5 Functional Assay—Ca^2+ Mobilization Human CCR5 is used to generate stable transfectants in CHO K1 cells. These CCR5 transfectants are used for assessing Ca^2+ mobilization in response to stimulation by the CCR5 ligands MIP-1α, MIP-1β, HCC-1(9-74) or RANTES. For the assay the cells are loaded with a Ca^2+-sensitive fluorochrome (Fluo3 or Fluo4). Ligand concentrations between 0.01-100 nM are used to induce Ca^2+ mobilization which is monitored in a fluorometer with appropriate settings. To assess the activity of the compounds to be tested, a baseline fluorescence reading is taken after which the compounds at the desired concentration are added to the cells and fluorescence is further recorded for a certain time to assess whether compounds show agonistic effects. Next the agonist is added to the mixture and fluorescence monitored. The inhibition of Ca^2+ flux in the presence of the compounds to be tested is calculated from the inhibition of maximal fluorescence induced by the agonist. IC50 values are calculated from dose-response curves obtained with the compounds.

Human CCR5 [2] = target: T1, Human CCR5; test: CCR5 membrane binding assay ([I-125]MIP-1α radioligand, membranes of CHO K1 transfectants); conditions: membranes of CHO K1 cells transfected with human CCR5; ligand 125-I MIP-1α
Procedure: a) CCR5 Membrane Binding Assay
Human CCR5 is used to generate stable transfectants in CHO K1 cells. Membranes prepared from these CCR5 transfectants are used in a radioligand binding assay using 125-I MIP-1α as a ligand and the compounds of formula I are tested for inhibitory activity.

T1 sequence (P51681 whole entry): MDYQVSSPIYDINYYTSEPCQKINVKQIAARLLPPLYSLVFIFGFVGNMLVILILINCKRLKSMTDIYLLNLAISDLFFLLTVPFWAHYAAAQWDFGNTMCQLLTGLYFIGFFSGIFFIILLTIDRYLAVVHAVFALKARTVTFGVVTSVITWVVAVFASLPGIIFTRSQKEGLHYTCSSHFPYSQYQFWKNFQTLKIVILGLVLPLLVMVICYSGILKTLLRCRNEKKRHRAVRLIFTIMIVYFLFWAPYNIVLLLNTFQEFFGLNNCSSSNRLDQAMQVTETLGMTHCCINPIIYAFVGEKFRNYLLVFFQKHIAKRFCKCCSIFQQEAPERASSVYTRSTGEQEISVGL

Compound: Cc1cc[n+]([O-])c(C)c1C(=O)N1CCC(C)(N2CCC(N(c3ccccc3)c3ccccn3)CC2)CC1 [Example 12, (2,4-Dimethyl-1-oxy-pyridin-3-yl)-[4′-methyl-4-(phenyl-pyridin-2-yl-amino)-[1,4′]bipiperidinyl-1′-yl]methanone]
IC50 (Human CCR5 [1]): 29 nM

IC50 (Human CCR5 [2]): 0.5 nM
Compound: Cc1nc(CN(c2ccc(Cl)cc2)C2CCN(C3(C)CCN(C(=O)c4c(C)cccc4C)CC3)CC2)cs1 [Example 32]

Compound: Cc1cc[n+]([O-])c(C)c1C(=O)N1CCC(C)(N2CCC(N(Cc3ccsc3)c3ccccc3)CC2)CC1 [Example 36, (2,4-Dimethyl-1-oxy-pyridin-3-yl)-[4′-methyl-4-(phenyl-thiophen-3-ylmethyl-amino)-[1,4′]bipiperidinyl-1′-yl]-methanone]
IC50 (Human CCR5 [1]; CHO K1 CCR5 transfectants, Fluo3 or Fluo4, agonist MIP-1α, MIP-1β, HCC-1(9-74) or RANTES, read-out: IC50, inhibition of Ca2+ flux): 8 nM

Reference: US7399771B2, “Piperidine derivatives as CCR5 inhibitors” (Novartis AG, priority 2002, dated 2008)
